Experimental data from PubChem BioAssay (NCI).
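Values below derive from 48-hour exposures of cells grown in 96-well plates, with endpoints linearly interpolated between the two concentrations bracketing the appropriate inhibition level. GI50 is the concentration that inhibits growth by half. Definition used: TGI = concentration required for complete inhibition of growth.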

Columns and labels:
Assay in all cases: NCI tumour cell line growth inhibition, 48 h
[1] = tested on: 786-0 renal
[2] = tested on: A498 renal
[3] = tested on: A549 NSCLC
[4] = tested on: ACHN renal
[5] = tested on: BT-549 breast
[6] = tested on: CAKI-1 renal
[7] = tested on: CCRF-CEM leukemia
[8] = tested on: COLO 205 colon
[9] = tested on: DU-145 prostate
[10] = tested on: EKVX NSCLC
[11] = tested on: HCC-2998 colon
[12] = tested on: HCT-116 colon
[13] = tested on: HCT-15 colon
[14] = tested on: HL-60(TB) leukemia
[15] = tested on: HOP-62 NSCLC
[16] = tested on: HS 578T breast
[17] = tested on: HT29 colon
[18] = tested on: IGROV1 ovarian
[19] = tested on: K-562 leukemia
[20] = tested on: KM12 colon
[21] = tested on: LOX IMVI melanoma
[22] = tested on: M14 melanoma
[23] = tested on: MALME-3M melanoma
[24] = tested on: MCF7 breast
[25] = tested on: MDA-MB-231 breast
[26] = tested on: MDA-MB-435
[27] = tested on: MOLT-4 leukemia
[28] = tested on: NCI-H226 lung
[29] = tested on: NCI-H23 lung
[30] = tested on: NCI-H460 lung
[31] = tested on: NCI-H522 lung
[32] = tested on: NCI/ADR-RES ovarian
[33] = tested on: OVCAR-3 ovarian
[34] = tested on: OVCAR-4 ovarian
[35] = tested on: OVCAR-5 ovarian
[36] = tested on: OVCAR-8 ovarian
[37] = tested on: PC-3 prostate
[38] = tested on: RPMI-8226 leukemia
[39] = tested on: RXF 393 renal
[40] = tested on: SF-268 CNS
[41] = tested on: SF-295 CNS
[42] = tested on: SF-539 CNS
[43] = tested on: SK-MEL-2 melanoma
[44] = tested on: SK-MEL-28 melanoma
[45] = tested on: SK-MEL-5 melanoma
[46] = tested on: SK-OV-3 ovarian
[47] = tested on: SN12C renal
[48] = tested on: SNB-19 CNS
[49] = tested on: SNB-75 CNS
[50] = tested on: SR leukemia
[51] = tested on: SW-620 colon
[52] = tested on: T-47D breast
[53] = tested on: TK-10 renal
[54] = tested on: U251 CNS
[55] = tested on: UACC-257 melanoma
[56] = tested on: UACC-62 melanoma
[57] = tested on: UO-31 renal

**Q.** What does the source list for `O=C1OCC2=C1C(c1cccc(Cl)c1)c1cc3c(cc1N2CCO)OCCO3` (centres undefined)?
**A.** GI50 [1]: 0.064 µM; TGI [1]: 5.5 µM; GI50 [2]: 0.0265 µM; TGI [2]: 0.58 µM; GI50 [3]: 0.132 µM; TGI [3]: 4.35 µM; GI50 [4]: 0.0733 µM; TGI [4]: > 100 µM; GI50 [5]: 0.147 µM; TGI [5]: 11.8 µM; GI50 [6]: 0.0697 µM; TGI [6]: > 55.6 µM; GI50 [7]: 0.112 µM; TGI [7]: > 100 µM; GI50 [8]: 0.0971 µM; TGI [8]: 0.651 µM; GI50 [9]: 0.152 µM; TGI [9]: 1.31 µM; GI50 [10]: 1.54 µM; TGI [10]: > 89.8 µM; GI50 [11]: 0.157 µM; TGI [11]: 2.91 µM; GI50 [12]: 0.0566 µM; TGI [12]: 4.01 µM; GI50 [13]: 0.073 µM; TGI [13]: > 100 µM; GI50 [14]: 0.0472 µM; TGI [14]: 0.346 µM; GI50 [15]: 0.0787 µM; TGI [15]: 40.5 µM; GI50 [16]: 0.0747 µM; TGI [16]: > 78.2 µM; GI50 [17]: 0.0402 µM; TGI [17]: 0.282 µM; GI50 [18]: 0.0792 µM; TGI [18]: > 47.4 µM; GI50 [19]: 0.0481 µM; TGI [19]: > 45.7 µM; GI50 [20]: 0.0431 µM; TGI [20]: 1.72 µM; GI50 [21]: 0.0689 µM; TGI [21]: 17.9 µM; GI50 [22]: 0.0493 µM; TGI [22]: 1.57 µM; GI50 [23]: 0.0551 µM; TGI [23]: > 100 µM; GI50 [24]: 0.0379 µM; TGI [24]: 97.6 µM; GI50 [25]: 0.334 µM; TGI [25]: 4.26 µM; GI50 [26]: 0.0236 µM; TGI [26]: 0.0626 µM; GI50 [27]: 0.348 µM; TGI [27]: > 100 µM; GI50 [28]: 0.0845 µM; TGI [28]: 1.85 µM; GI50 [29]: 0.097 µM; TGI [29]: > 57.2 µM; GI50 [30]: 0.0494 µM; TGI [30]: 4.59 µM; GI50 [31]: 0.0204 µM; TGI [31]: 0.0608 µM; GI50 [32]: 0.0631 µM; TGI [32]: 0.373 µM; GI50 [33]: 0.0251 µM; TGI [33]: 0.0618 µM; GI50 [34]: 0.118 µM; TGI [34]: > 100 µM; GI50 [35]: 0.539 µM; TGI [35]: > 100 µM; GI50 [36]: 0.176 µM; TGI [36]: 4.33 µM; GI50 [37]: 0.0502 µM; TGI [37]: 13.1 µM; GI50 [38]: 0.129 µM; TGI [38]: 19.2 µM; GI50 [39]: 0.0294 µM; TGI [39]: 0.174 µM; GI50 [40]: 0.0598 µM; TGI [40]: 13.2 µM; GI50 [41]: 0.0403 µM; TGI [41]: 3.25 µM; GI50 [42]: 0.0467 µM; TGI [42]: 0.975 µM; GI50 [43]: 0.0335 µM; TGI [43]: 0.607 µM; GI50 [44]: 0.0839 µM; TGI [44]: > 100 µM; GI50 [45]: 0.036 µM; TGI [45]: 0.507 µM; GI50 [46]: 0.0548 µM; TGI [46]: 1.96 µM; GI50 [47]: 0.27 µM; TGI [47]: 46.3 µM; GI50 [48]: 0.0747 µM; TGI [48]: > 100 µM; GI50 [49]: 0.0419 µM; TGI [49]: 39.3 µM; GI50 [50]: 0.0581 µM; TGI [50]: 67.4 µM; GI50 [51]: 0.04 µM; TGI [51]: > 100 µM; GI50 [52]: 0.0677 µM; TGI [52]: > 100 µM; GI50 [53]: 0.12 µM; TGI [53]: 37.3 µM; GI50 [54]: 0.0542 µM; TGI [54]: 7.14 µM; GI50 [55]: 0.0364 µM; TGI [55]: 28.2 µM; GI50 [56]: 0.0367 µM; TGI [56]: > 70 µM; GI50 [57]: 0.0736 µM; TGI [57]: > 69.4 µM
